Laboratory results published in patent publication US6410594B1, “Substituted cyclopentane compounds useful as neuraminidase inhibitors” (Biocryst Pharmaceuticals, Inc., priority 1996, dated 2002).

Experiments:
[1] = biological target: H1N9 Influenza Neuraminidase (Influenza A virus, UniProt P03472); test: biochemical; set-up: species or system influenza virus (H1N9 strain); conditions: 10 min at 37° C.; read-out: Inhibition of H1N9 Influenza Neuraminidase IC50
H1N9 Influenza Neuraminidase, sequence (P03472 83-470 limits assumed): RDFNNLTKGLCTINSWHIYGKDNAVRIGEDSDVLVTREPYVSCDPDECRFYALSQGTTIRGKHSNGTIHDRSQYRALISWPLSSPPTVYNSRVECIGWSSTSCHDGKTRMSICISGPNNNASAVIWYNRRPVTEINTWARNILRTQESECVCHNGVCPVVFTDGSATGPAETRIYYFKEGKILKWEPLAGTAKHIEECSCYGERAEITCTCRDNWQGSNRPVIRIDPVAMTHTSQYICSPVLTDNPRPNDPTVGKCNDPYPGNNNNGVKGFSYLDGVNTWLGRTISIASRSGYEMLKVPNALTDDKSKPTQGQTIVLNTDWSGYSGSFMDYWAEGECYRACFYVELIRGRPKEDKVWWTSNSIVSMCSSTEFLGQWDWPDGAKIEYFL

| SMILES | IC50 [1] | melting point |
| --- | --- | --- |
| CC(=O)NC(CO)[C@H]1CC(C(=O)O)C[C@@H]1NC(=N)N (single isomer, unassigned; isomer a) [Example 6, 4β-{[(Amino)(imino)methyl]amino}-3α-[(2-hydroxy-1-methylcarbonylamino)ethyl]-1-cyclo-pentancarboxylic acid (isomer A at C-6)] | 90 µM | 121 to 122 °C |
| CON(C)C(=O)C(NC(C)=O)[C@H]1C[C@](O)(C(=O)O)C[C@@H]1NC(=N)N (some centres unmarked) [Example 19, c-3-{[(Amino)(imino)methyl]amino}-t-1-hydroxy-t-4{(methylcarbonylamino){[(methyl)-(methoxy)amino]carbonyl}methyl}cyclopentan-r-carboxylic acid trifluoroacetic acid (1:1)] | 16 µM | 160 to 216 °C |
| CCCN(CCC)C(=O)C(NC(C)=O)[C@H]1C[C@@](O)(C(=O)O)C[C@@H]1N=C(N)N (some centres unmarked) [Example 23, t-3-{[(Amino)(imino)methyl]amino}-c-4-[(di-n-propylaminocarbonyl)(methylcarbonylamino)-methyl]-t-hydroxycyclpentan-r-carboxylic acid trifluoroacetic acid (4:5)] | 0.47 µM | – |
